For one data set, the system named is NCI-H1417 cells. Description: Antiproliferation activity on NCI-H1417 cells (CellTiter-Glo, 10 days). In kind it is cell-based, human. The following applies: incubated for 10 days. The protocol:
Experimental purpose: to detect the antiproliferation activity of the compounds on NCI-H1417 cells.
Experimental materials: RPMI 1640 culture medium, fetal bovine serum, Promega CellTiter-Glo reagent. NCI-H1417 cell line purchased from ATCC. Envision multi-label reader (PerkinElmer).
Experimental method: the compounds were dissolved to 10 mM, then the compounds were diluted 5 times with DMSO in a compound plate, the compounds were diluted 3-fold with Bravo from a starting concentration of 2 mM to the 10th concentration, 250 nL of the solutions were transferred to the upper and lower duplicate wells on a blank 384 cell plate by Echo transfer plate, cell suspension of per well/1000 cells/50 μL was added to the transferred 250 nL DMSO/compound, the compounds were diluted 200-fold, i.e., the initial action concentration was 10 μM. The cell plate was placed in a carbon dioxide incubator and incubated for 10 days. 25 μL of Promega CellTiter-Glo reagent was added to each well on the cell plate and was shaken at room temperature for 10 minutes to stabilize the luminescence signal. Readings were performed by PerkinElmer Envision multi-label analyzer.
Data analysis: the equation (Max-Ratio)/(Max-Min)*100% was used to convert the original data into the inhibition rate, the value of IC50 can be obtained by curve fitting of four-parameters (the 205 mode in XLFITS, iDBS).
(In general: ATP-based viability assays read luminescence as a measure of living cells.)

The next data set deals with human LSD1 (Homo sapiens, UniProt O60341). Description: In vitro enzyme activity screening against LSD1 (HRP/Amplex Red fluorescence coupling enzyme method). In kind it is biochemical. The following applies: human LSD1, histone H3K4me peptide substrate 20 μM. As for the experimental part: The purpose of this test was to detect the in vitro inhibitory activity of the compounds against LSD1. The enzyme used in this test was human LSD1, the standard substrate was histone H3K4me peptide (20 μM), the fluorescence coupling enzyme method was used to determine the activity of the compound by combining horseradish peroxidase (HRP) and fluorescent reagent Amplex Red to detect the H2O2 generation as a result of the reaction of LSD1. Compounds were tested in 10-dose IC50 mode with a 3-fold serial dilution starting at 10 μM. The enzyme and […] to start the reaction. Fluorescence detector: Envision, excitation wavelength: Ex/Em=530/590 […]

A short description of data set [1]: In vivo pharmacokinetics in CD-1 mice. The following applies: male CD-1 mice. The protocol:
CD-1 mice (male, 7-9 weeks old, Shanghai Slac)
The rodent pharmacokinetic characteristics after intravenous injection and oral administration of the compounds were tested by standard protocols, in the experiment, the candidate compounds were formulated into clear solutions and administrated to mice via a single intravenous injection and oral administration. The vehicle for intravenous injection and oral administration was a mixed solution of 10% of dimethyl sulfoxide and 90% of 10% hydroxypropyl β cyclodextrin. This project used four male CD-1 mice, two mice were administered intravenously, with a dose of 1 mg/kg, and plasma samples were collected at 0 hour (before administration) and 0.0833, 0.25, 0.5, 1, 2, 4, 8, 24 hours after administration. The other two mice were orally administered by gavage, with a dose of 2 mg/kg, plasma samples were collected at 0 hour (before administration) and 0.25, 0.5, 1, 2, 4, 8, 24 hours after administration, whole blood samples were collected within 24 hours, which were centrifuged at 3000 g for 15 minutes, and the supernatants were separated to obtain plasma samples, 4 times volume of acetonitrile solutions containing internal standard were added to precipitate the protein, the mixtures were centrifuged to obtain the supernatants, the supernatants were added with water of equal volume and centrifuged again to take the supernatant for injection, and the blood drug concentration was quantitatively analyzed by the LC-MS/MS analysis method, and pharmacokinetic parameters were calculated, such as max concentration (Cmax), clearance (CL), half-life (T1/2), volumes of distribution (Vdss), the area under the plasma concentration-time curve (AUC0-last), bioavailability (F) etc.

In a further data set the test system is MV-4-11 cells. Description: Antiproliferation activity on MV-4-11 cells (CellTiter-Glo, 6 days). In kind it is cell-based. The note with it: incubated for 6 days. The source says:
Experimental purpose: to detect the antiproliferation activity of the compound to be tested on MV-4-11 cells.
Experimental materials: IMDM culture medium, fetal bovine serum, penicillin/streptomycin antibiotics purchased from Wisent. CellTiter-Glo (chemiluminescent cell viability assay reagent) reagents purchased from Promega. MV-4-11 cell line was purchased from Nanjing Cobioer Co., Ltd. Nivo Multi-Marker Analyzer (PerkinElmer).
Experimental method: MV-4-11 cells were planted in a white 96-well plate, 80 μL of cell suspension per well, which contained 6000 MV-4-11 cells. The cell plate was placed in a carbon dioxide incubator for overnight culture.
The compounds to be tested were diluted 5-fold with a pipet until the 8th concentration, i.e., diluted from 2 mM to 25.6 nM, double duplicate well experiment was set. 78 μL of the culture medium was added to an intermediate plate, and then 2 μL per well of the serially diluted compounds were transferred to the corresponding positions on the intermediate plate, after mixing, 20 μL per well was transferred to the cell plate. The cell plate was incubated in a carbon dioxide incubator for 6 days. Another cell plate was prepared and the signal value on the day of dosing was read as the maximum value (Max value in the equation below) to participate in the data analysis. 25 μL of the chemiluminescent cell viability assay reagent was added to each well of this cell plate, which was incubated at room temperature for 10 minutes to stabilize the luminescence signal. The multi-label analyzer was used for reading.
(§1) Data analysis: the equation (Sample-Min)/(Max-Min)*100% was used to convert the original data into the inhibition rate, the IC50 value can be obtained by curve fitting of four-parameters (“log(inhibitor) vs. response—Variable slope” mode in GraphPad Prism)).

In another data set the test system is HL60 cells. The experiment in a line: Antiproliferation activity on HL60 cells (CellTiter-Glo, 6 days). In kind it is cell-based. The following applies: incubated for 6 days.
Description: Experimental purpose: to detect the antiproliferation activity of the compound to be tested on HL60 cells.
Experimental materials: RPMI-1640 culture medium, fetal bovine serum, penicillin/streptomycin antibiotics purchased from Wisent. CellTiter-Glo (chemiluminescent cell viability assay reagent) reagents purchased from Promega. HL60 cell line purchased from Nanjing Cobioer Co., Ltd. Nivo multi-label reader (PerkinElmer).
Experimental method: HL60 cells were planted in a white 384-well plate, 40 μL of cell suspension per well, 600 HL60 cells were contained therein. The cell plate was placed in a carbon dioxide incubator for overnight culture. The compounds to be tested were diluted 5-fold with a pipet until the 10th concentration, i.e., diluted from 2 mM to 1.024 nM, double duplicate well experiment was set. 78 μL of the culture medium was added to an intermediate plate, and then 2 μL per well of the serially diluted compounds were transferred to the corresponding positions on the intermediate plate, after mixing, 10 μL per well was transferred to the cell plate. The cell plate was incubated in a carbon dioxide incubator for 6 days. Another cell plate was prepared and the signal value on the day of dosing was read as the maximum value (Max value in the equation below) to participate in the data analysis. 20 μL of chemiluminescent cell viability assay reagent was added to each well of this cell plate, which was incubated at room temperature for 10 minutes to stabilize the luminescence signal. The multi-label reader was used for reading.
as §1

Experimental findings from patent publication US11649245B2, “Cyclopropylamine compound as LSD1 inhibitor and use thereof” (HELIOEAST PHARMACEUTICAL CO., LTD., priority 2018, dated 2023) are described below.

Each structure is given as a SMILES string. pIC50: −log10 of the molar value. Counter-ions that a name gives are not always drawn.

For orientation: pIC50 means the negative decadic logarithm of the IC50, by convention in mol/L. The low end stands for a large IC50, the high end for a small IC50. The term bioavailability denotes dose-corrected exposure relative to a reference, in per cent.

`O=C(O)c1ccc(CN2CCC3(CC2)CC(N[C@@H]2C[C@H]2c2ccccc2)CO3)cc1` (stereo partly shown) [Hydrochloride of the compound 6]: the pIC50 in the data set on NCI-H1417 cells was 8.04; on human LSD1, 6.48; in the data set on MV-4-11 cells it was 8.49; in the data set with HL60 cells, 7.83. Moreover, the “Half-life T1/2 (IV)” value in data set [1] (IV 1 mg/kg, 1 mg/kg) is 1.54 h. Also, the clearance in data set [1] (male, CD-1, mouse, plasma, iv, 1 mg/kg, study doses 1 mg/kg intravenous, 2 mg/kg oral, read-out: Clearance CL) worked out at 40.2 mL/min/kg. Besides, in data set [1] (male, CD-1, mouse, plasma, iv, 1 mg/kg, study doses 1 mg/kg intravenous, 2 mg/kg oral, read-out: Volumes of distribution Vdss), the Vd is 1.19 L/kg. Also, the Cmax in data set [1] (male, CD-1, mouse, plasma, study doses 1 mg/kg intravenous, 2 mg/kg oral, route not given, read-out: Max concentration Cmax) turned out to be 718 nM. For the same compound, in data set [1] (male, CD-1, mouse, plasma, po, 2 mg/kg, PO 2 mg/kg, read-out: The area under the plasma concentration-time curve AUC0-last PO), the AUC(0-t) came to 0.691 µM·h. For the same compound, in data set [1] (male, CD-1, mouse, plasma, po, 2 mg/kg, oral 2 mg/kg vs intravenous 1 mg/kg, read-out: Bioavailability F), the bioavailability turned out to be 33.2%.
